Measured values: US5846516A, “Perfluoroalkylated amphiphilic phosphorus compounds: preparation and biomedical applications” (Alliance Pharmaceutial Corp., priority 1992, dated 1998)
Read-outs that look alike come from different tables or passages of the source.

Key:
[1] = Growth and viability of Namalva cell cultures; format: cell-based; details: human; for activity: namalva cells; for viability: Namalva cells
[2] = Critical micellar concentration (CMC); format: physicochemical; details: aqueous solutions, 20° C.
Excerpt: (§1) The compounds described in this invention are very efficient surface agents, greatly lowering the surface (γs) and interfacial (γi) tensions between water and a fluorocarbon when added to water. Thus at 1 g/L in water, γs goes from 73 (pure water) to 19.7-33.8 mNm^-1, and γi [water/perfluorodecalin (FDC) or perfluorooctyl bromide (PFOB) ] goes from 56 and 51 (in the absence of surfactant) to 5.1-8.9 mNm^-1 and 4.7-10.5 mNm^-1 respectively, as illustrated by the examples assembled in the table below. These compounds are also characterized by low values of critical micellar concentration: (CMC:from 1.10^-6 to 1.7.10^-3 M).
(§2) Surface Activity Data of Aqueous Solutions

[3] = Dispersibility in water at 25° C.
[4] = Surface activity of aqueous solutions: surface (γs) and interfacial (γi) tensions; format: physicochemical; details: 20° C., ±0.3 mNm^-1
Excerpt: as §1, with “[…],” for “Thus at 1 g/L in water,”
as §2

[5] = Hemolysis of red blood cells; format: cell-based, human; details: human, read-out: Hemolysis, % hem.
Protocol: (§3) Compound 22 is non-hemolytic at a 50 g/L concentration, and its LD50 is higher than 2000 mg/kg in intravenous injection into mice. […] Furthermore, these derivatives show a higher i.v. tolerance than the single-chain compounds disclosed in WO 90/15807 C (25 ≤LD50 ≤125 mg/kg bw).
(§4) *solution added to an equal volume of a suspension, at 1% concentration o
(§5) washed red blood cells in saline.

human red blood cells = experiment: Hemolysis of red blood cells; format: cell-based
Protocol: as §3, §4, §5

[6] = Toxicity in mice after intravenous injection (LD50, survival); format: in vivo; details: mouse, in vivo; intravenous injection into mice
Protocol: as §3

mice = experiment: as above; format: in vivo; details: for Toxicity in mice, Survival: i.v.
Protocol: as §3

[7] = format: physicochemical; details: 90% w/v PFOB
Protocol: (§6) The products described in this invention, used as surfactants or co-surfactants, allow the preparation and stabilization of fluorocarbon emulsions. The emulsions were prepared by sonification (BRANSON B30 sonicator) (for 50% w/v of fluorocarbon) or by high-pressure microfluidization ((MICROFLUIDICS M 110)) (for more concentrated fluorocarbon emulsions). The ageing of these emulsions at 40° C. (accelerated ageing conditions) was followed by measuring the average size of the particles by a photosedimentation method (HORIBA CAPA 500) and compared with reference emulsions prepared with natural egg-yolk lecithins or poloxamers, for example Pluronic F-68.
To prepare 40 mL of a 90% w/v PFOB emulsion, surfactant 7b (400 mg) was first dispersed in 19.6 mL of a phosphate buffer with an Ultra Turrax. PFOB (36 g) was then added slowly and the whole was mixed for 10 min at 24000 revolutions/min. The resulting pre-emulsion was transferred into a microfluidizer and emulsified for 1 min at 800-1000 bar.
This emulsion was prepared as for example 28 with 200 mg of 7b and 1.4 g of EYP for 35 g of PFOB.

[8] = Ageing of sonicated perfluorodecalin (FDC 50% w/v) emulsions at 40° C., average particle size; format: physicochemical; details: FIG. 5; 50% w/v PFD sterilized emulsions, 3% surfactant
Protocol: as §6
To prepare 12 mL of an emulsion of FDC (50% w/v) with 3% w/v of 7b, the surfactant (360 mg) was first sonicated in a rosette cell at 0° C., in 8.55 mL of water. Next, the FDC (6 g) was added and the whole is sonicated, until optimal average particle size and size distribution are obtained. The emulsion was then divided into aliquots, stocked under inert atmosphere, sterilized for 8 min at 121° C. in an autoclave, then stored at 40° C. and monitored over time.
The same process but with a mixture of surfactants composed of 120 mg of 7b and 240 mg of natural egg-yolk lecithins (EYP) gave FDC emulsion with the following average particle sizes: 0.15 μm on preparation, 0.21 μm after sterilization and 0.32 μm after 30 days at 40° C. […]

O=P(O)(OCCC(F)(F)C(F)(F)C(F)(F)C(F)(F)C(F)(F)C(F)(F)F)OC[C@H]1OC(O)[C@H](O)[C@@H](O)[C@@H]1O (stereo partly drawn) [Compound 7a, [2-(F-hexyl)ethyl](6-D-glucosyl)(sodium)phosphate]
activity ([1]; 0.1 g/L): 82%
activity ([1]; 1 g/L): 51%
viability ([1]; 1 g/L): 97%
CMC [2]: 1.55 mM
solubility [3]: 350 mg/mL
γi /FDC (interfacial tension water/perfluorodecalin) ([4]; 1 g/L in water): 5.6 mNm^-1
γi /PFOB (interfacial tension water/perfluorooctyl bromide) ([4]; 1 g/L in water): 4.7 mNm^-1
γs (surface tension) ([4]; 1 g/L in water): 19.7 mNm^-1
hemolysis ([5]; 100 g/L, solution added to an equal volume of 1% washed red blood cells in saline): 0%
hemolytic activity (in words) (human red blood cells; even at 100 g/L): no hemolytic activity
LD50 [6]: ~750 mg/kg
Toxicity in mice, Survival (mice; dose 750 (mg/kg)): 4/10

O=P(O)(OCCC(F)(F)C(F)(F)C(F)(F)C(F)(F)C(F)(F)C(F)(F)C(F)(F)C(F)(F)F)OC[C@H]1OC(O)[C@H](O)[C@@H](O)[C@@H]1O (stereo partly drawn) [Compound 7b, [2-(F-octyl)ethyl](6-D-glucosyl)(sodium)phosphate]
stability of PFOB emulsion vs. EYP emulsion (in words) ([7]; FIG. 6, 1% w/v 7b vs 4% EYP, 40° C.): more stable than an emulsion containing 4% of EYP
co-surfactant effect with EYP on particle size and stabilization (in words) ([7]; FIG. 7, 1/8th of 4% EYP replaced by 7b): significantly reduces the average particle size and causes strong stabilization
ageing at 40° C. of perfluorodecalin emulsions (in words) [8]: superimposable
activity ([1]; 1 g/L): 76%
viability ([1]; 1 g/L): 104%
hemolysis ([5]; 30 g/L, dispersed in a 20 g/L Pluronic F68 solution, added to an equal volume of 1% washed red blood cells in saline): 0%
hemolytic effect (in words) (human red blood cells; dispersion at 30 g/L in 20 g/L Pluronic F-68): no hemolytic effect
Toxicity in mice, Survival (mice; dose 125 (mg/kg)): 10/10

O=P(O)(OCCC(F)(F)C(F)(F)C(F)(F)C(F)(F)C(F)(F)C(F)(F)C(F)(F)C(F)(F)F)O[C@H]1[C@H](O)[C@@H](CO)OC(O)[C@@H]1O (stereo partly drawn) [Compound 8b, [2-(F-octyl)ethyl] (3-D-glucosyl)(sodium) phosphate]
ageing at 40° C. of perfluorodecalin emulsions (in words) [8]: superimposable
CMC [2]: 1.68 mM
solubility [3]: 250 mg/mL
γi /FDC (interfacial tension water/perfluorodecalin) ([4]; 1 g/L in water): 5.6 mNm^-1
γi /PFOB (interfacial tension water/perfluorooctyl bromide) ([4]; 1 g/L in water): 8.3 mNm^-1
γs (surface tension) ([4]; 1 g/L in water): 27.5 mNm^-1

[2-(F-octyl)ethyl] bis [polyethylene glycol methyl ether] phosphate triester 20, n=7 [Compound 20]
Dispersibility at 25° C., g/L in water: > 100 g/L
CMC [2]: 0.025 mM
γi /FDC (interfacial tension water/perfluorodecalin) ([4]; 0.1 g/L (0.083 mM) in water): 13.1 mNm^-1
γi /PFOB (interfacial tension water/perfluorooctyl bromide) ([4]; 0.1 g/L (0.083 mM) in water): 9.2 mNm^-1
γs (surface tension) ([4]; 0.1 g/L (0.083 mM) in water): 33.8 mNm^-1

[5-(F-octyl)pentyl] bis [polyethylene glycol methyl ether] phosphate triester 21, n=7 [Compound 21]
Dispersibility at 25° C., g/L in water: > 100 g/L
CMC [2]: 0.001 mM
γi /FDC (interfacial tension water/perfluorodecalin) ([4]; 0.01 g/L (0.008 mM) in water): 9.6 mNm^-1
γi /PFOB (interfacial tension water/perfluorooctyl bromide) ([4]; 0.01 g/L (0.008 mM) in water): 7.5 mNm^-1
γs (surface tension) ([4]; 0.01 g/L (0.008 mM) in water): 29.6 mNm^-1
Toxicity in mice, Survival (mice; dose 500 (mg/kg)): 10/10
Toxicity in mice, Survival (mice; dose 1000 (mg/kg)): 3/10

[5-(F-octyl)pentyl] bis [polyethylene glycol methyl ether] phosphate triester 22, n=16 [Compound 22]
hemolytic activity (in words) (human red blood cells; 50 g/L): non-hemolytic
Toxicity in mice, Survival (mice; dose 2000 (mg/kg)): 10/10
LD50 (mice; intravenous injection into mice): higher than 2000 mg/kg
in vivo (i.v.) tolerance (in words) (mice; intravenous, mice): in vivo tolerance increases from 21 to 22
